From PubChem BioAssay (NCI)
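Dose response: 5 concentrations. Exposure: 48 h. Format: 96-well plates. Endpoint: linear interpolation; highest concentration if not reached. TGI: total growth inhibition.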

Legend:
Test in all cases: NCI-60 cell line screen, 48 h
HCT-15 colon = test system: HCT-15 colon
RXF 393 renal = test system: RXF 393 renal
UO-31 renal = test system: UO-31 renal
NCI-H522 lung = test system: NCI-H522 lung
MALME-3M melanoma = test system: MALME-3M melanoma
NCI-H460 lung = test system: NCI-H460 lung
UACC-62 melanoma = test system: UACC-62 melanoma
RPMI-8226 leukemia = test system: RPMI-8226 leukemia
SF-295 CNS = test system: SF-295 CNS
CCRF-CEM leukemia = test system: CCRF-CEM leukemia
OVCAR-4 ovarian = test system: OVCAR-4 ovarian
COLO 205 colon = test system: COLO 205 colon
HL-60(TB) leukemia = test system: HL-60(TB) leukemia
TK-10 renal = test system: TK-10 renal
HCC-2998 colon = test system: HCC-2998 colon
SW-620 colon = test system: SW-620 colon
OVCAR-5 ovarian = test system: OVCAR-5 ovarian
MOLT-4 leukemia = test system: MOLT-4 leukemia
786-0 renal = test system: 786-0 renal
SK-MEL-5 melanoma = test system: SK-MEL-5 melanoma
SN12C renal = test system: SN12C renal
U251 CNS = test system: U251 CNS
EKVX NSCLC = test system: EKVX NSCLC
HOP-62 NSCLC = test system: HOP-62 NSCLC
M19-MEL melanoma = test system: M19-MEL melanoma
HCT-116 colon = test system: HCT-116 colon
DMS 273 small cell lung = test system: DMS 273 small cell lung
LOX IMVI melanoma = test system: LOX IMVI melanoma
A549 NSCLC = test system: A549 NSCLC
KM12 colon = test system: KM12 colon
OVCAR-8 ovarian = test system: OVCAR-8 ovarian
SK-MEL-2 melanoma = test system: SK-MEL-2 melanoma
OVCAR-3 ovarian = test system: OVCAR-3 ovarian
SNB-78 CNS = test system: SNB-78 CNS
CAKI-1 renal = test system: CAKI-1 renal
SK-OV-3 ovarian = test system: SK-OV-3 ovarian
SNB-19 CNS = test system: SNB-19 CNS
DMS 114 small cell lung = test system: DMS 114 small cell lung
LXFL 529 NSCLC = test system: LXFL 529 NSCLC
XF 498 CNS = test system: XF 498 CNS
A498 renal = test system: A498 renal
SF-539 CNS = test system: SF-539 CNS
HT29 colon = test system: HT29 colon
HOP-92 NSCLC = test system: HOP-92 NSCLC
SR leukemia = test system: SR leukemia
K-562 leukemia = test system: K-562 leukemia
IGROV1 ovarian = test system: IGROV1 ovarian
DLD-1 colon = test system: DLD-1 colon
SK-MEL-28 melanoma = test system: SK-MEL-28 melanoma
UACC-257 melanoma = test system: UACC-257 melanoma
NCI-H226 lung = test system: NCI-H226 lung
M14 melanoma = test system: M14 melanoma
SF-268 CNS = test system: SF-268 CNS
ACHN renal = test system: ACHN renal
SNB-75 CNS = test system: SNB-75 CNS
NCI-H23 lung = test system: NCI-H23 lung
KM20L2 colon = test system: KM20L2 colon
HOP-18 NSCLC = test system: HOP-18 NSCLC

Compound `O=S(=O)(Sc1ccc(Cl)cc1)c1ccc(Cl)cc1` has a TGI (HCT-15 colon) of 40.2 µM, a TGI (RXF 393 renal) of 30.1 µM and a TGI (UO-31 renal) of 23.9 µM. For the same compound, the TGI (NCI-H522 lung) was 31.1 µM, the TGI (MALME-3M melanoma) was 48.9 µM and the TGI (NCI-H460 lung) was 37.4 µM. It also gave a TGI (UACC-62 melanoma) of 31.4 µM, a TGI (RPMI-8226 leukemia) of 60.5 µM and a TGI (SF-295 CNS) of 27.2 µM. It also gave a TGI (CCRF-CEM leukemia) of 18.5 µM, a TGI (OVCAR-4 ovarian) of 41.7 µM and a TGI (COLO 205 colon) of 31.8 µM. It also gave a TGI (HL-60(TB) leukemia) of 33 µM, a TGI (TK-10 renal) of 61.4 µM and a TGI (HCC-2998 colon) of 40.7 µM. It also gave a TGI (SW-620 colon) of 32.6 µM, a TGI (OVCAR-5 ovarian) of 37.9 µM and a TGI (MOLT-4 leukemia) of 44.5 µM. For the same compound, the TGI (786-0 renal) was 29.5 µM, the TGI (SK-MEL-5 melanoma) was 28.6 µM and the TGI (SN12C renal) was 25.4 µM. The TGI (U251 CNS) was 22.3 µM, the TGI (EKVX NSCLC) was 57.5 µM and the TGI (HOP-62 NSCLC) was 30.9 µM. The TGI (M19-MEL melanoma) was 35.6 µM, the TGI (HCT-116 colon) was 28.6 µM and the TGI (DMS 273 small cell lung) was 29.6 µM. It also gave a TGI (LOX IMVI melanoma) of 24.8 µM, a TGI (A549 NSCLC) of 32.7 µM and a TGI (KM12 colon) of 32.5 µM. For the same compound, the TGI (OVCAR-8 ovarian) was 30.2 µM, the TGI (SK-MEL-2 melanoma) was 14.5 µM and the TGI (OVCAR-3 ovarian) was 30.2 µM. For the same compound, the TGI (SNB-78 CNS) was 45.9 µM, the TGI (CAKI-1 renal) was 40.5 µM and the TGI (SK-OV-3 ovarian) was 85.2 µM. It also gave a TGI (SNB-19 CNS) of 65 µM, a TGI (DMS 114 small cell lung) of 28.6 µM and a TGI (LXFL 529 NSCLC) of 32.7 µM. For the same compound, the TGI (XF 498 CNS) was 53.4 µM, the TGI (A498 renal) was 34.5 µM and the TGI (SF-539 CNS) was 27.7 µM. The TGI (HT29 colon) was 35 µM, the TGI (HOP-92 NSCLC) was 42.1 µM and the TGI (SR leukemia) was 45 µM. For the same compound, the TGI (K-562 leukemia) was 93.7 µM, the TGI (IGROV1 ovarian) was 31.1 µM and the TGI (DLD-1 colon) was 31.6 µM. For the same compound, the TGI (SK-MEL-28 melanoma) was 31.1 µM, the TGI (UACC-257 melanoma) was 36.3 µM and the TGI (NCI-H226 lung) was 30.9 µM. For the same compound, the TGI (M14 melanoma) was 32.5 µM, the TGI (SF-268 CNS) was 21.3 µM and the TGI (ACHN renal) was 31.2 µM. For the same compound, the TGI (SNB-75 CNS) was 40.5 µM, the TGI (NCI-H23 lung) was 30.5 µM and the TGI (KM20L2 colon) was 34.1 µM.
`CCOC(=O)C1=C(NC)OC/C1=N\NC(=O)c1ccccc1O` showed a TGI (RXF 393 renal) greater than 100 µM, a TGI (UO-31 renal) of 26.1 µM and a TGI (NCI-H522 lung) of 90.5 µM. For the same compound, the TGI (MALME-3M melanoma) was greater than 100 µM, the TGI (NCI-H460 lung) was greater than 100 µM and the TGI (UACC-62 melanoma) was 80.5 µM. It also gave a TGI (RPMI-8226 leukemia) greater than 100 µM, a TGI (SF-295 CNS) greater than 100 µM and a TGI (CCRF-CEM leukemia) greater than 100 µM. For the same compound, the TGI (OVCAR-4 ovarian) was 83.5 µM, the TGI (COLO 205 colon) was greater than 100 µM and the TGI (HL-60(TB) leukemia) was 71.4 µM. For the same compound, the TGI (TK-10 renal) was greater than 100 µM, the TGI (HCC-2998 colon) was greater than 100 µM and the TGI (SW-620 colon) was greater than 100 µM. For the same compound, the TGI (OVCAR-5 ovarian) was greater than 100 µM, the TGI (MOLT-4 leukemia) was greater than 100 µM and the TGI (786-0 renal) was greater than 100 µM. For the same compound, the TGI (SK-MEL-5 melanoma) was greater than 100 µM, the TGI (SN12C renal) was greater than 100 µM and the TGI (U251 CNS) was greater than 100 µM. For the same compound, the TGI (EKVX NSCLC) was greater than 100 µM, the TGI (HOP-62 NSCLC) was greater than 100 µM and the TGI (M19-MEL melanoma) was greater than 100 µM. For the same compound, the TGI (HCT-116 colon) was 58.3 µM, the TGI (DMS 273 small cell lung) was greater than 100 µM and the TGI (LOX IMVI melanoma) was 70.4 µM. The TGI (A549 NSCLC) was greater than 100 µM, the TGI (KM12 colon) was greater than 100 µM and the TGI (OVCAR-8 ovarian) was greater than 100 µM. For the same compound, the TGI (SK-MEL-2 melanoma) was 48.2 µM, the TGI (OVCAR-3 ovarian) was 98.5 µM and the TGI (SNB-78 CNS) was greater than 100 µM. It also gave a TGI (CAKI-1 renal) greater than 100 µM, a TGI (SK-OV-3 ovarian) greater than 100 µM and a TGI (SNB-19 CNS) greater than 100 µM. The TGI (DMS 114 small cell lung) was 89.6 µM, the TGI (LXFL 529 NSCLC) was greater than 100 µM and the TGI (XF 498 CNS) was greater than 100 µM. For the same compound, the TGI (A498 renal) was greater than 100 µM, the TGI (SF-539 CNS) was 60.6 µM and the TGI (HOP-92 NSCLC) was greater than 100 µM. It also gave a TGI (K-562 leukemia) greater than 100 µM, a TGI (IGROV1 ovarian) greater than 100 µM and a TGI (DLD-1 colon) greater than 100 µM. For the same compound, the TGI (SK-MEL-28 melanoma) was greater than 100 µM, the TGI (UACC-257 melanoma) was 17.3 µM and the TGI (NCI-H226 lung) was 60.6 µM. For the same compound, the TGI (M14 melanoma) was greater than 100 µM, the TGI (SF-268 CNS) was greater than 100 µM and the TGI (HOP-18 NSCLC) was greater than 100 µM. For the same compound, the TGI (SNB-75 CNS) was greater than 100 µM, the TGI (NCI-H23 lung) was 54.9 µM and the TGI (KM20L2 colon) was greater than 100 µM.
